Assay results from the CheMixHub viscosity set.
± gives the uncertainty stated by the source.

Experiment: xn = mol fraction of the nth substance listed

Question: With CC(=O)O + ClC(Cl)Cl as the compound, how does the viscosity (298.15 K, 101.33 kPa, x2 = 0.0468) read?
Answer: The viscosity was 1.087 ± 0.01 mPa·s.

Question: What about the viscosity (298.15 K, 101.33 kPa, x2 = 0.1013) of the same compound?
Answer: Its viscosity is 0.997 ± 0.009 mPa·s.

Question: And the viscosity (298.15 K, 101.33 kPa, x2 = 0.1021)?
Answer: Its viscosity is 1.022 ± 0.01 mPa·s.

Question: What about the viscosity (298.15 K, 101.33 kPa, x2 = 0.1487) of the same compound?
Answer: The viscosity was 0.954 ± 0.009 mPa·s.

Question: And the viscosity (298.15 K, 101.33 kPa, x2 = 0.203)?
Answer: The viscosity was 0.925 ± 0.009 mPa·s.

Question: What about the viscosity (298.15 K, 101.33 kPa, x2 = 0.2312) of the same compound?
Answer: Its viscosity is 0.882 ± 0.008 mPa·s.

Question: What about the viscosity (298.15 K, 101.33 kPa, x2 = 0.2997) of the same compound?
Answer: The viscosity was 0.837 ± 0.008 mPa·s.

Question: What about the viscosity (298.15 K, 101.33 kPa, x2 = 0.3403) of the same compound?
Answer: The viscosity was 0.805 ± 0.008 mPa·s.

Question: And the viscosity (298.15 K, 101.33 kPa, x2 = 0.4207)?
Answer: The viscosity was 0.759 ± 0.007 mPa·s.

Question: What about the viscosity (298.15 K, 101.33 kPa, x2 = 0.4784) of the same compound?
Answer: Its viscosity is 0.731 ± 0.007 mPa·s.

Question: And the viscosity (298.15 K, 101.33 kPa, x2 = 0.5017)?
Answer: Its viscosity is 0.717 ± 0.007 mPa·s.

Question: What about the viscosity (298.15 K, 101.33 kPa, x2 = 0.5627) of the same compound?
Answer: Its viscosity is 0.68 ± 0.007 mPa·s.

Question: What about the viscosity (298.15 K, 101.33 kPa, x2 = 0.6215) of the same compound?
Answer: Its viscosity is 0.657 ± 0.007 mPa·s.

Question: And the viscosity (298.15 K, 101.33 kPa, x2 = 0.7312)?
Answer: The viscosity was 0.613 ± 0.006 mPa·s.

Question: And the viscosity (298.15 K, 101.33 kPa, x2 = 0.8031)?
Answer: The viscosity was 0.589 ± 0.006 mPa·s.

Question: What about the viscosity (298.15 K, 101.33 kPa, x2 = 0.8931) of the same compound?
Answer: Its viscosity is 0.56 ± 0.006 mPa·s.

Question: What about the viscosity (303.15 K, 101 kPa, x2 = 0.0819) of the same compound?
Answer: The viscosity was 0.8986 ± 0.024 mPa·s.

Question: And the viscosity (303.15 K, 101 kPa, x2 = 0.25)?
Answer: The viscosity was 0.7244 ± 0.019 mPa·s.

Question: What about the viscosity (303.15 K, 101 kPa, x2 = 0.7464) of the same compound?
Answer: Its viscosity is 0.5285 ± 0.014 mPa·s.

Question: And the viscosity (313.15 K, 101 kPa, x2 = 0.0819)?
Answer: Its viscosity is 0.8287 ± 0.022 mPa·s.

Question: And the viscosity (313.15 K, 101 kPa, x2 = 0.25)?
Answer: The viscosity was 0.6532 ± 0.017 mPa·s.

Question: And the viscosity (313.15 K, 101 kPa, x2 = 0.7464)?
Answer: Its viscosity is 0.484 ± 0.013 mPa·s.

Question: What about the viscosity (323.15 K, 101 kPa, x2 = 0.0819) of the same compound?
Answer: Its viscosity is 0.7516 ± 0.02 mPa·s.

Question: What about the viscosity (323.15 K, 101 kPa, x2 = 0.25) of the same compound?
Answer: Its viscosity is 0.5982 ± 0.016 mPa·s.

Question: What about the viscosity (323.15 K, 101 kPa, x2 = 0.7464) of the same compound?
Answer: The viscosity was 0.4537 ± 0.012 mPa·s.

Question: Which viscosity (303.15 K, 101 kPa, x1 = 0.2497) does the source give for O=S(=O)(O)O + O=[N+]([O-])c1ccccc1 here?
Answer: Its viscosity is 3.5 ± 0.09 mPa·s.

Question: What about the viscosity (303.15 K, 101 kPa, x1 = 0.4023) of the same compound?
Answer: Its viscosity is 5.75 ± 0.15 mPa·s.

Question: What about the viscosity (303.15 K, 101 kPa, x1 = 0.562) of the same compound?
Answer: Its viscosity is 9.38 ± 0.25 mPa·s.

Question: And the viscosity (303.15 K, 101 kPa, x1 = 0.656)?
Answer: Its viscosity is 12.28 ± 0.33 mPa·s.

Question: What about the viscosity (303.15 K, 101 kPa, x1 = 0.6792) of the same compound?
Answer: The viscosity was 12.94 ± 0.35 mPa·s.

Question: What about the viscosity (303.15 K, 101 kPa, x1 = 0.7132) of the same compound?
Answer: The viscosity was 13.56 ± 0.37 mPa·s.

Question: What about the viscosity (303.15 K, 101 kPa, x1 = 0.796) of the same compound?
Answer: Its viscosity is 16.17 ± 0.44 mPa·s.

Question: And the viscosity (303.15 K, 101 kPa, x1 = 0.8755)?
Answer: The viscosity was 18.31 ± 0.5 mPa·s.

Question: What about the viscosity (303.15 K, 101 kPa, x1 = 0.9516) of the same compound?
Answer: The viscosity was 18.96 ± 0.51 mPa·s.

Question: And the viscosity (303.15 K, 101 kPa, x1 = 0.9542)?
Answer: The viscosity was 18.56 ± 0.5 mPa·s.

Question: And the viscosity (303.15 K, 101 kPa, x1 = 0.9702)?
Answer: The viscosity was 19.68 ± 0.54 mPa·s.

Question: And the viscosity (303.15 K, 101 kPa, x2 = 0.0128)?
Answer: The viscosity was 19.92 ± 0.54 mPa·s.

Question: Which viscosity (293.15 K, 101.33 kPa, x1 = 0.01112) does the source give for CCOC(N)=O + O here?
Answer: The viscosity was 1.122 ± 0.01 mPa·s.

Question: And the viscosity (293.15 K, 101.33 kPa, x1 = 0.02393)?
Answer: Its viscosity is 1.253 ± 0.011 mPa·s.

Question: And the viscosity (293.15 K, 101.33 kPa, x1 = 0.03411)?
Answer: The viscosity was 1.356 ± 0.012 mPa·s.

Question: And the viscosity (293.15 K, 101.33 kPa, x1 = 0.0497)?
Answer: Its viscosity is 1.505 ± 0.014 mPa·s.

Question: And the viscosity (293.15 K, 101.33 kPa, x1 = 0.06189)?
Answer: Its viscosity is 1.618 ± 0.015 mPa·s.

Question: What about the viscosity (293.15 K, 101.33 kPa, x1 = 0.07566) of the same compound?
Answer: The viscosity was 1.743 ± 0.016 mPa·s.

Question: And the viscosity (293.15 K, 101.33 kPa, x1 = 0.1253)?
Answer: Its viscosity is 2.156 ± 0.02 mPa·s.

Question: And the viscosity (298.15 K, 101.33 kPa, x1 = 0.01112)?
Answer: The viscosity was 0.9919 ± 0.0094 mPa·s.

Question: What about the viscosity (298.15 K, 101.33 kPa, x1 = 0.02393) of the same compound?
Answer: The viscosity was 1.102 ± 0.01 mPa·s.

Question: And the viscosity (298.15 K, 101.33 kPa, x1 = 0.03411)?
Answer: The viscosity was 1.191 ± 0.011 mPa·s.

Question: And the viscosity (298.15 K, 101.33 kPa, x1 = 0.0497)?
Answer: The viscosity was 1.314 ± 0.013 mPa·s.

Question: What about the viscosity (298.15 K, 101.33 kPa, x1 = 0.06189) of the same compound?
Answer: Its viscosity is 1.409 ± 0.014 mPa·s.

Question: And the viscosity (298.15 K, 101.33 kPa, x1 = 0.07566)?
Answer: Its viscosity is 1.513 ± 0.015 mPa·s.

Question: What about the viscosity (298.15 K, 101.33 kPa, x1 = 0.1253) of the same compound?
Answer: The viscosity was 1.86 ± 0.019 mPa·s.

Question: Which viscosity (298.15 K, 101 kPa, x2 = 0.1025) does the source give for CC(=O)O + CCCCOC(C)=O here?
Answer: The viscosity was 1.003 ± 0.01 mPa·s.

Question: What about the viscosity (298.15 K, 101 kPa, x2 = 0.2035) of the same compound?
Answer: The viscosity was 0.947 ± 0.009 mPa·s.

Question: What about the viscosity (298.15 K, 101 kPa, x2 = 0.2989) of the same compound?
Answer: Its viscosity is 0.887 ± 0.009 mPa·s.

Question: What about the viscosity (298.15 K, 101 kPa, x2 = 0.3998) of the same compound?
Answer: The viscosity was 0.842 ± 0.008 mPa·s.

Question: What about the viscosity (298.15 K, 101 kPa, x2 = 0.4907) of the same compound?
Answer: Its viscosity is 0.811 ± 0.008 mPa·s.

Question: And the viscosity (298.15 K, 101 kPa, x2 = 0.6449)?
Answer: The viscosity was 0.77 ± 0.008 mPa·s.

Question: What about the viscosity (298.15 K, 101 kPa, x2 = 0.8015) of the same compound?
Answer: The viscosity was 0.729 ± 0.007 mPa·s.

Question: And the viscosity (298.15 K, 101 kPa, x2 = 0.8705)?
Answer: Its viscosity is 0.726 ± 0.007 mPa·s.

Question: What about the viscosity (298.15 K, 101 kPa, x2 = 0.8886) of the same compound?
Answer: The viscosity was 0.723 ± 0.007 mPa·s.

Question: What about the viscosity (298.15 K, 101 kPa, x2 = 0.9096) of the same compound?
Answer: Its viscosity is 0.712 ± 0.007 mPa·s.

Question: And the viscosity (298.15 K, 101 kPa, x2 = 0.9315)?
Answer: Its viscosity is 0.698 ± 0.007 mPa·s.

Question: And the viscosity (298.15 K, 101 kPa, x2 = 0.9427)?
Answer: Its viscosity is 0.698 ± 0.007 mPa·s.

Question: What about the viscosity (298.15 K, 101 kPa, x2 = 0.9605) of the same compound?
Answer: Its viscosity is 0.696 ± 0.007 mPa·s.

Question: What about the viscosity (298.15 K, 101 kPa, x2 = 0.9779) of the same compound?
Answer: Its viscosity is 0.686 ± 0.007 mPa·s.

Question: And the viscosity (313.15 K, 101 kPa, x2 = 0.1025)?
Answer: Its viscosity is 0.811 ± 0.008 mPa·s.

Question: And the viscosity (313.15 K, 101 kPa, x2 = 0.2035)?
Answer: The viscosity was 0.767 ± 0.008 mPa·s.

Question: What about the viscosity (313.15 K, 101 kPa, x2 = 0.2989) of the same compound?
Answer: Its viscosity is 0.724 ± 0.007 mPa·s.

Question: What about the viscosity (313.15 K, 101 kPa, x2 = 0.3998) of the same compound?
Answer: Its viscosity is 0.685 ± 0.007 mPa·s.

Question: What about the viscosity (313.15 K, 101 kPa, x2 = 0.4907) of the same compound?
Answer: The viscosity was 0.671 ± 0.007 mPa·s.

Question: And the viscosity (313.15 K, 101 kPa, x2 = 0.6449)?
Answer: The viscosity was 0.63 ± 0.006 mPa·s.

Question: And the viscosity (313.15 K, 101 kPa, x2 = 0.8015)?
Answer: Its viscosity is 0.599 ± 0.006 mPa·s.

Question: And the viscosity (313.15 K, 101 kPa, x2 = 0.8705)?
Answer: The viscosity was 0.589 ± 0.006 mPa·s.

Question: What about the viscosity (313.15 K, 101 kPa, x2 = 0.8886) of the same compound?
Answer: Its viscosity is 0.592 ± 0.006 mPa·s.

Question: What about the viscosity (313.15 K, 101 kPa, x2 = 0.9096) of the same compound?
Answer: Its viscosity is 0.583 ± 0.006 mPa·s.

Question: And the viscosity (313.15 K, 101 kPa, x2 = 0.9315)?
Answer: The viscosity was 0.58 ± 0.006 mPa·s.

Question: What about the viscosity (313.15 K, 101 kPa, x2 = 0.9427) of the same compound?
Answer: Its viscosity is 0.58 ± 0.006 mPa·s.

Question: And the viscosity (313.15 K, 101 kPa, x2 = 0.9605)?
Answer: The viscosity was 0.574 ± 0.006 mPa·s.

Question: And the viscosity (313.15 K, 101 kPa, x2 = 0.9779)?
Answer: The viscosity was 0.563 ± 0.006 mPa·s.
